According to patent publication US5071848A, “Tricyclic quinoline antineoplastic agents” (Abbott Laboratories, priority 1989, dated 1991):
In brackets after ≈: the same amount, converted by molar mass. Entries after “also recorded” stand apart in the source; their conditions may differ. Read-outs that look alike come from different tables or passages of the source.

Assays:
DNA topoisomerases = details: in words; known antitumor drugs; cited from earlier work
DNA topoisomerase II = assay: DNA Breakage Assay: topoisomerase II-mediated DNA breakage (linearized 32P-labeled PBR 322 plasmid, agarose gel); format: biochemical, calf; parameters: key to Topoisomerase II-mediated DNA breakage, extent of breakage: SB: strong breakage; MB: moderate breakage; WB: weak breakage; details: for Topoisomerase II-mediated DNA breakage, extent of breakage: at the concentration given; for Topoisomerase II-mediated DNA breakage, Concentration: concentration of compound which cleaves the DNA to smaller fragments, 30 minutes incubation
Description: Antitumor activity was assayed using the DNA Breakage Assay described below.
The DNA breakage assay requires two major reagents: DNA topoisomerase II and radiolabeled DNA. DNA topoisomerase II (topo II) was isolated from calf thymus as described by B. D. Holligan, et al. in J. Biol. Chem., 260, 2475-2482 (1985). Pure enzyme or partially purified extracts enriched in topo II activity may be used. PBR 322 plasmid was used as the DNA substrate. This plasmid, which is isolated in the closed circular form, is first linearized using, a restriction enzyme which cuts the plasmid in only one place. The newly exposed ends of the plasmid are then labeled with the radionuclide, 32P, using standard techniques described by T. Maniatis, et al. in "Molecular Cloning", Cold Spring Harbor Press, p. 115 (1982).
The enzyme and the radiolabeled DNA are added together first, then drug is added. After an incubation period of 30 minutes, the mixtures are quenched using 1% SDS. The mixtures are then subjected to agarose gel electrophoresis which separates the full length, linear substrate DNA from any small fragments that might be formed as a consequence of drug action. Smaller fragments run with a higher mobility. The distribution of the DNA species in the gel is assessed by autoradiography as described by T. Maniatis, et al. in "Molecular Cloning", Cold Spring Harbor Press, p. 115 (1982).
DNA breakage activity is assessed based on the level of substrate lost, the level of DNA appearing as smaller pieces running faster in the gel, and the distribution of these smaller pieces in the gel. The last criterion is important since drug-induced DNA cleavage that is enzyme-mediated fragmentation results in specific banding patterns due to the fact that the enzyme binds to specific sequences along the DNA molecule. A definite banding pattern is thus indicative of topo II-mediated cleavage and correlates well with anti-tumor activity.

Hela cells = assay: In vitro cytotoxicity assay (three day MTT microtiter assay), Hela; format: cell-based; details: Homo sapiens, 72 h, read-out: In vitro tumor cell cytotoxicity (IC50), Hela
Description: (§1) IC50 's were measured in a colorimetric assay for cytotoxic activity against cultured cells according to the protocol described below:
(§2) A three day microtiter assay is used to measure the growth inhibition of cultured cells exposed to a range of drug concentrations. Metabolic activity is measured by the cell's ability to reduce the tetrazolium dye, MTT (3-(4,5-dimethylthiazol-2-yl)-2,5-diphenyltetrazolium bromide) to a quantifiable colored end-product, which absorbs at 570 nm in the visible spectrum. Surviving cells reduce the MTT dye.
(§3) Test compounds are dissolved in dimethyl sulfoxide (DMSO) and diluted, first with Earle's Balanced Salt Solution, followed by culture medium, to twice the highest concentration of compound to be tested. From this concentrated stock, two-fold serial dilutions are prepared in 96-well microtiter trays, each well containing twice the desired final concentration of compound. Each concentration is tested in triplicate and compared to triplicate drug-free controls.
(§4) The cells are grown in the same medium used for diluting the compounds. After harvesting by trypsinization*, viable cell counts are determined and cell density is adjusted to 25,000 cells/mL. Inoculum (0.1 mL), containing the cells, is then added to each well for a final concentration of 2,500 cells per well. Addition of the inoculum dilutes the test compounds to the desired final concentration.
(§5) *Adherent cells are harvested by trypsinization as follows:
(§6) 1. Remove the medium by aspiration.
(§7) 2. Rinse cell monolayer twice with Earle's Balanced Salt Solution.
(§8) 3. Add trypsin (0.05%)/EDTA (0.53 mM). For each 25 cm^2 use approximately 0.2 mL of solution, tilt to cover the monolayer, then withdraw trypsin leaving only a thin film of solution. Incubate at room temperature until cell monolayer detaches.
(§9) 4. When the cells have detached as determined by visual and/or microscopic observation, add medium containing fetal calf serum to stop the action of the trypsin and resuspend the cells. Triturate to aid dissociation of cell clumps.
(§10) 5. Determine the number of cells per milliliter by electronic cell counter (e.g. Coulter Counter) or by mixing an aliquot of cell suspension with Trypan Blue (0.4% in normal saline) and counting the viable cells using a hemacytometer.
(§11) Microtiter trays are incubated for three days at 36° C. in a humidified atmosphere containing 5% carbon dioxide.
(§12) After three days, 20 microtiters of 5 mg/mL MTT in phosphate-buffered saline solution is added to each well. Trays are returned to the incubator for two to four hours to allow the surviving cells to reduce the dye. Medium and unreduced dye are removed by aspiration. DMSO is added to each well to dissolve the water insoluble, colored end product of the dye reduction so that it can be measured spectrophotometrically at 570 nm.

[1] = system: Lewis Lung Carcinoma (LLC1) cells; assay: In vitro cytotoxicity assay (three day MTT microtiter assay), LLC1; format: cell-based, murine; details: Mus musculus, LLC1, 72 h, read-out: In vitro tumor cell cytotoxicity (IC50), LLC1
Description: (§13) The cytotoxity of the compounds of the present invention is illustrated in Table 6. IC50 's were measured in a colorimetric assay for cytotoxic activity against cultured cells according to the protocol described below:
as §2, §3, §4, §5, §6, §7
3. […]
(§14) 4. When the cells have detached as determined by visual and/or microscopic observation, add medium containing fetal calf serum to stop the action of the trypsin and resuspend the cells. […]
After three days, 20 microtiters of 5 mg/mL MTT in phosphate-buffered saline solution is added to each well. […] DMSO is added to each well to dissolve the water insoluble, colored end product of the dye reduction so that it can be measured spectrophotometrically at 570 nm. […]

A549 cell line = assay: In vitro cytotoxicity assay (three day MTT microtiter assay), A549; format: cell-based; details: Homo sapiens, read-out: In vitro tumor cell cytotoxicity (IC50), A549
Description: as §1, §2, §3, §4, §5, §6, §7, §8, §9, §10, §11, §12

[2] = system: P388.D1 leukemia cell line; assay: In vitro cytotoxicity assay (three day MTT microtiter assay), P388.D1; format: cell-based; details: Mus musculus, P388D1, 72 h, read-out: In vitro tumor cell cytotoxicity (IC50), P388.D1
Description: as §13, §2, §3, §4, §5, §6, §7, §8, §9, §10, §11
as §12, with “nm. The IC50 is determined as the concentration of compound tested required to reduce the absorbance at 570 nm to 50% of non-drug treated control values.” for “nm.”
^c P388 D1 is a leukemia cell line.

[3] = system: HCT-8 colon cancer cell line; assay: In vitro cytotoxicity assay (three day MTT microtiter assay), HCT-8; format: cell-based, human; details: read-out: In vitro tumor cell cytotoxicity (IC50), HCT-8
Description: as §1, §2
Test compounds are dissolved in dimethyl sulfoxide (DMSO) and diluted, first with Earle's Balanced Salt Solution, followed by culture medium, to twice the highest concentration of compound to be tested. […]
The cells are grown in the same medium used for diluting the compounds. After harvesting by trypsinization*, viable cell counts are determined and cell density is adjusted to 25,000 cells/mL. […]
as §14
After three days, 20 microtiters of 5 mg/mL MTT in phosphate-buffered saline solution is added to each well. […] DMSO is added to each well to dissolve the water insoluble, colored end product of the dye reduction so that it can be measured spectrophotometrically at 570 nm.

[4] = system: Lewis Lung carcinoma (LL); assay: In vivo antitumor activity, Lewis Lung carcinoma (LL), tumor weight inhibition; parameters: species or system BDF1 mice; details: IP, day 1 to day 9, determined on day 14
Description: (§15) The in vivo data presented in Table 7 was determined in BDF1 mice for two murine cancer models, using 6 to 10 animals per test group. In the case of Lewis Lung carcinoma (LL) the mice are inoculated subcutaneously (SC) in the axillary region with a puncture in the inguinal area with the tumor on day 0. The compound being tested is administered intraperitoneally (IP) from day 1 to day 9 for a total of nine injections. The tumors are weighed on day 14 and the weight inhibition expressed as the median weight ratio of treated (T) to control (C) tumors. In the case of P388 Leukemia cells, a suspension of diluted ascites fluid (0.1 mL) containing 1×10^6 cells is implanted IP into the mice on day 0 and the compound being tested is administered IP from day 1 to day 5 for a total of five injections. Survival was monitored for 30 days and the increased lifespan expressed as median survival time of treated (T) to control (C) mice.

P388 Leukemia = assay: In vivo antitumor activity, P388 Leukemia, increased lifespan; parameters: species or system BDF1 mice; details: IP, day 1 to day 5, survival monitored 30 days
Description: as §15

SMILES	Topoisomerase II-mediated DNA breakage, extent of breakage (DNA topoisomerase II)	Topoisomerase II-mediated DNA breakage, Concentration (DNA topoisomerase II)	IC50 (A549 cell line; 72 h, A549, three days, MTT)	IC50 [2]	further results
COc1cc([C@@H]2c3cc4c(cc3[C@@H](O[C@@H]3O[C@@H]5CO[C@@H](c6cccs6)O[C@H]5[C@H](O)[C@H]3O)[C@H]3COC(=O)[C@H]23)OCO4)cc(OC)c1O [teniposide]					effect on DNA topoisomerase-mediated DNA breakage-rejoining / cleavage (DNA topoisomerases): found to affect the breakage-rejoining reaction of mammalian DNA mediated by DNA topoisomerases; also recorded: known to act by inducing topo II mediated DNA cleavage
CCn1c2s[nH]c(=O)c2c(=O)c2cc(F)c(N3CCNCC3)c(F)c21 [Example 14]	MB	64 µg/mL			IC50 (Hela cells; HeLa): 4 µg/mL (≈ 10.9 µM); IC50 [1]: 1.5 µg/mL (≈ 4.09 µM)
COc1cc([C@@H]2c3cc4c(cc3[C@@H](O[C@@H]3O[C@@H]5CO[C@@H](C)O[C@H]5[C@H](O)[C@H]3O)[C@H]3COC(=O)[C@H]23)OCO4)cc(OC)c1O [Etoposide, etoposide, reference compound]				0.05 µg/mL (≈ 0.085 µM)	IC50 (A549 cell line; A549, 72 h): 1 µg/mL (≈ 1.7 µM); IC50 (Hela cells; HeLa): 4 µg/mL (≈ 6.8 µM); IC50 ([3]; Homo sapiens, HCT-8, 72 h): 0.68 µg/mL (≈ 1.16 µM); effect on DNA topoisomerase-mediated DNA breakage-rejoining / cleavage (DNA topoisomerases): found to affect the breakage-rejoining reaction of mammalian DNA mediated by DNA topoisomerases; also recorded: known to act by inducing topo II mediated DNA cleavage
O=c1[nH]sc2c1c(=O)c1cc(F)c(N3CCNCC3)c(F)c1n2C1CC1 [Example 2]	SB	32 µg/mL			IC50 (Hela cells; HeLa): 3.9 µg/mL (≈ 10.3 µM); IC50 [1]: 0.99 µg/mL (≈ 2.62 µM)
CC1CN(c2c(F)cc3c(=O)c4c(=O)[nH]sc4n(C4CC4)c3c2F)CCN1 (stereo not shown) [Example 3]	SB	32 µg/mL	8.3 µg/mL (≈ 21.2 µM)	3.1 µg/mL (≈ 7.9 µM)	LL (T/C), median weight ratio of treated to control tumors ([4]; 31.5 mg/kg): 0.81; LL (T/C), median weight ratio of treated to control tumors ([4]; 62.5 mg/kg): 0.75; LL (T/C), median weight ratio of treated to control tumors ([4]; 125 mg/kg): 0.59; LL (T/C), median weight ratio of treated to control tumors ([4]; 250 mg/kg): 0.35; IC50 ([3]; 72 h, HCT-8 human colon cancer, three days, MTT): 14 µg/mL (≈ 35.7 µM); P388 Leukemia % T/C, median lifespan of treated compared to control mice (P388 Leukemia; 31.5 mg/kg): 145%; P388 Leukemia % T/C, median lifespan of treated compared to control mice (P388 Leukemia; 62.5 mg/kg): 145%; P388 Leukemia % T/C, median lifespan of treated compared to control mice (P388 Leukemia; 125 mg/kg): 160%; P388 Leukemia % T/C, median lifespan of treated compared to control mice (P388 Leukemia; 250 mg/kg): 160%
O=C1c2c(O)ccc(O)c2C(=O)c2c(NCCNCCO)ccc(NCCNCCO)c21 [mitoxantrone]					effect on DNA topoisomerase-mediated DNA breakage-rejoining / cleavage (DNA topoisomerases): found to affect the breakage-rejoining reaction of mammalian DNA mediated by DNA topoisomerases

Continued, in another order:

Topoisomerase II-mediated DNA breakage, extent of breakage (DNA topoisomerase II)	Topoisomerase II-mediated DNA breakage, Concentration (DNA topoisomerase II)	SMILES	IC50 (A549 cell line; 72 h, A549, three days, MTT)	IC50 [2]	further results
SB	32 µg/mL	NC1CCN(c2c(F)cc3c(=O)c4c(=O)[nH]sc4n(C4CC4)c3c2F)C1 (stereo not shown) [Example 11]			IC50 (Hela cells; Hela cells, three days, MTT): 0.95 µg/mL (≈ 2.51 µM); IC50 ([1]; Lewis Lung Carcinoma, three days, MTT): 0.52 µg/mL (≈ 1.37 µM)
SB	32 µg/mL	O=c1[nH]sc2c1c(=O)c1cc(F)c(N3CCSCC3)c(F)c1n2C1CC1 [Example 6]	12.5 µg/mL (≈ 31.6 µM)	6.3 µg/mL (≈ 15.9 µM)	
SB	32 µg/mL	O=c1[nH]sc2c1c(=O)c1cc(F)c(N3CCCNCC3)c(F)c1n2C1CC1 [Example 7]		0.2 µg/mL (≈ 0.51 µM)	
SB	32 µg/mL	O=c1[nH]sc2c1c(=O)c1cc(F)c(N3CCCC(O)C3)c(F)c1n2C1CC1 (stereo not shown) [Example 9]	3.9 µg/mL (≈ 9.91 µM)	2.05 µg/mL (≈ 5.21 µM)	
SB	32 µg/mL	NCC1CCN(c2c(F)cc3c(=O)c4c(=O)[nH]sc4n(C4CC4)c3c2F)C1 (stereo not shown) [Example 12]	0.3 µg/mL (≈ 0.764 µM)	< 0.05 µg/mL	
SB	32 µg/mL	O=c1[nH]sc2c1c(=O)c1cc(F)c(N3CCC(O)CC3)c(F)c1n2C1CC1 [Example 10]	2.9 µg/mL (≈ 7.37 µM)	0.23 µg/mL (≈ 0.585 µM)	P388 Leukemia % T/C, median lifespan of treated compared to control mice (P388 Leukemia; 12.5 mg/kg): 129%; P388 Leukemia % T/C, median lifespan of treated compared to control mice (P388 Leukemia; 25 mg/kg): 133%; P388 Leukemia % T/C, median lifespan of treated compared to control mice (P388 Leukemia; 50 mg/kg): 133%; P388 Leukemia % T/C, median lifespan of treated compared to control mice (P388 Leukemia; 100 mg/kg): 117%
